We go through 12 molecules from ChEMBL document CHEMBL1201862, “PubChem BioAssay data set” (2004).

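96-well plates; 48 h exposure; 5 concentrations. Endpoints by linear interpolation between flanking doses. Not reached: highest tested concentration assigned. GI50 marks 50% less growth.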 Calls of active or inactive are those of the source. No stated cut-off is given here; in the data, active = GI50 up to about 1.1 µM and inactive = higher.

Holding throughout (assay): growth of human tumour cells (NCI), 48 h
Experiment [1] relates to LOX IMVI.
The test system of experiment [2] is KM12.
Experiment [3] concerns TK-10.
Experiment [4] has as its system SK-MEL-5.
Experiment [5] deals with NCI-H226.
The test system of experiment [6] is M14.
The subject of experiment [7] is SF-295.
Experiment [8] deals with UACC-62.
For experiment [9], the system named is HT-29.
Experiment [10] relates to RXF 631.
The test system of experiment [11] is SNB-19.
Experiment [12] has as its system SNB-75.
The subject of experiment [13] is U-251.
Experiment [14] concerns SN12C.
The subject of experiment [15] is HOP-92.
Experiment [16] has as its system K562.
The subject of experiment [17] is HL-60.
For experiment [18], the system named is A498.
The test system of experiment [19] is SW-620.
Experiment [20] has as its system MCF7.

On to `O=[N+]([O-])c1ccc(COc2cccc3cccnc23)cc1`, for which the GI50 was 11.7 µM (inactive) in [1]; 23.8 µM (inactive) in [2]; 15.8 µM (inactive) in experiment [3]; 17.1 µM (inactive) in experiment [4]; 18.7 µM (inactive) in [5]; 10.6 µM (inactive) in experiment [6]. In addition, the GI50 in experiment [7] was 26.6 µM (inactive); in [8], 17.3 µM (inactive); in experiment [9], 31.6 µM (inactive); in experiment [10], 13.9 µM (inactive); in experiment [11], 27.4 µM (inactive); in experiment [12], 26.9 µM (inactive). Further, the GI50 was 10 µM (inactive) in experiment [13]; 22.6 µM (inactive) in [14]; 31 µM (inactive) in [15]; 11.3 µM (inactive) in [16]; 5.69 µM (inactive) in experiment [17]; 34.8 µM (inactive) in [18].

On to `N=C(Nc1nc(-c2ccccn2)cc2ccccc12)c1ccccn1`, for which the GI50 is 0.0266 µM (active) in experiment [1]; 0.049 µM (active) in experiment [2]; 0.249 µM (active) in experiment [3]; 0.0817 µM (active) in experiment [4]; 0.106 µM (active) in experiment [5]; 0.0229 µM (active) in experiment [6]. In addition, the GI50 in experiment [7] is 0.326 µM (active); in [8], 0.0336 µM (active); in [9], 0.01 µM (active); in experiment [10], 0.01 µM (active); in [11] it was 0.834 µM (active); in experiment [12], 0.361 µM (active). Moreover, the GI50 is 0.0295 µM (active) in experiment [13]; 0.0252 µM (active) in experiment [14]; 0.0182 µM (active) in experiment [19]; 0.0233 µM (active) in experiment [15]; 0.0108 µM (active) in experiment [16]; 0.0106 µM (active) in experiment [20]. Further, the GI50 in [17] was 0.01 µM (active); in experiment [18], 0.233 µM (active).

Turning to `Nc1nc(=O)[nH]c2c1cnn2C1CCCCO1` (stereo not drawn), the GI50 in experiment [1] is > 100 µM (inactive); in experiment [2], > 100 µM (inactive); in [3] it was > 100 µM (inactive); in experiment [4], 70.3 µM (inactive); in [5], 39.3 µM (inactive); in experiment [6], > 100 µM (inactive). Besides, the GI50 in experiment [7], in [9], in [10], in experiment [11], in [12] and in experiment [13] was > 100 µM (inactive) throughout. In addition, the GI50 in experiment [14] was > 100 µM (inactive); in experiment [19], > 100 µM (inactive); in [15] it was > 100 µM (inactive); in experiment [16], > 100 µM (inactive); in experiment [17], 38.4 µM (inactive); in [18], > 100 µM (inactive).

As for `O=C(/C=C/c1ccc([N+](=O)[O-])cc1)c1ccc(NCc2nc3ccccc3[nH]2)cc1`, the GI50 in experiment [1] is 2.43 µM (inactive); in experiment [2], 1.78 µM (inactive); in experiment [3], 5.96 µM (inactive); in experiment [4], 5.18 µM (inactive); in [6], 11.5 µM (inactive); in experiment [7], 3.86 µM (inactive). Moreover, the GI50 in [8] is 9.84 µM (inactive); in experiment [9], 3.44 µM (inactive); in experiment [10], 3.49 µM (inactive); in experiment [11], 3.56 µM (inactive); in experiment [12] it was 3.93 µM (inactive); in experiment [13] it was 1.75 µM (inactive). Moreover, the GI50 in experiment [14] is 2.96 µM (inactive); in experiment [19] it was 2.25 µM (inactive); in experiment [15] it was 8.57 µM (inactive); in [16] it was 2.3 µM (inactive); in [17], 1.6 µM (inactive); in experiment [18], 7.24 µM (inactive).

For `C=C=CC(NC(=O)c1ccccc1)(C(=O)O)C(F)(F)F` (stereo not drawn), the GI50 in experiment [1], in experiment [2], in [3], in experiment [4], in experiment [5] and in [6] was > 100 µM (inactive) throughout. For the same molecule, the GI50 in experiment [7], in experiment [9], in [10], in experiment [11], in experiment [12] and in experiment [13] was > 100 µM (inactive) in each case. Besides, the GI50 in experiment [14], in experiment [19], in experiment [15], in experiment [16], in experiment [17] and in experiment [18] was > 100 µM (inactive) in each case.

Consider `C#CCC1(C(=O)OCC)C(=O)c2ccccc2N(C)C1=O` (stereo not drawn), for which the GI50 is > 100 µM (inactive) in experiment [1]; > 100 µM (inactive) in [3]; 70.3 µM (inactive) in experiment [4]; 62.5 µM (inactive) in experiment [5]; > 100 µM (inactive) in [6]; > 100 µM (inactive) in experiment [7]. Further, the GI50 is > 100 µM (inactive) in experiment [8]; > 100 µM (inactive) in experiment [9]; > 100 µM (inactive) in [10]; 45.4 µM (inactive) in [11]; 16.6 µM (inactive) in experiment [12]; > 100 µM (inactive) in experiment [13]. The GI50 in experiment [14] was 67.9 µM (inactive); in experiment [19] it was > 100 µM (inactive); in experiment [15], 36.6 µM (inactive); in experiment [16] it was 91.8 µM (inactive); in [17], 60.1 µM (inactive); in experiment [18] it was 67.5 µM (inactive).

In the case of `Nc1nc(N)c2nc(-c3ccco3)cnc2n1`, the GI50 was 30.9 µM (inactive) in experiment [1]; 93.5 µM (inactive) in experiment [2]; 88.1 µM (inactive) in [3]; 52.5 µM (inactive) in experiment [4]; > 100 µM (inactive) in experiment [5]; 50 µM (inactive) in [6]. Moreover, the GI50 in experiment [7] was 60.3 µM (inactive); in experiment [8], 22.4 µM (inactive); in [9] it was 76.7 µM (inactive); in experiment [10] it was 36 µM (inactive); in experiment [11], > 100 µM (inactive); in [12], 28.4 µM (inactive). Also, the GI50 was 34.1 µM (inactive) in [13]; 85.5 µM (inactive) in experiment [14]; 40 µM (inactive) in experiment [15]; 33.7 µM (inactive) in [16]; 28.3 µM (inactive) in experiment [17]; 42.2 µM (inactive) in [18].

`C/C(CCn1[nH]c(=O)ccc1=O)=N\NC(=O)C(=O)NN`: the GI50 in experiment [1], in experiment [2], in experiment [3], in [4], in experiment [5] and in experiment [6] was > 100 µM (inactive) throughout. Moreover, the GI50 in [7], in experiment [8], in experiment [9], in [10], in experiment [11] and in [14] was > 100 µM (inactive) each time. Besides, the GI50 is > 100 µM (inactive) in [19], > 100 µM (inactive) in experiment [16], > 100 µM (inactive) in [17] and 43.8 µM (inactive) in [18].

With `COc1ccc(Cc2c3cc(OC)c(OC)cc3cc[n+]2C)cc1`, the GI50 was > 14.2 µM (inactive) in [1]; 9.29 µM (inactive) in experiment [2]; > 52.5 µM (inactive) in experiment [3]; 21.2 µM (inactive) in [4]; 33.1 µM (inactive) in experiment [5]; > 21.7 µM (inactive) in experiment [6]. Also, the GI50 in [7] was 5.73 µM (inactive); in experiment [8] it was 18.9 µM (inactive); in experiment [9], 13.4 µM (inactive); in [10], > 10.3 µM (inactive); in experiment [11], 6.81 µM (inactive); in [12], 9.25 µM (inactive). Also, the GI50 was 13.5 µM (inactive) in [13]; 4.93 µM (inactive) in [14]; > 100 µM (inactive) in experiment [19]; 23.1 µM (inactive) in [15]; 34.4 µM (inactive) in experiment [16]; 1.21 µM (inactive) in experiment [17]. Further, the GI50 in [18] was > 100 µM (inactive).

For the molecule `COC(=O)c1ccccc1NC(=O)C(=O)CC(=O)CC(c1ccccc1)c1c(O)c2ccccc2oc1=O` (stereo not drawn), the GI50 in experiment [2], in [3], in [4], in experiment [6], in experiment [7] and in experiment [8] was > 100 µM (inactive) in each case. In addition, the GI50 in experiment [9] is > 100 µM (inactive); in experiment [10], > 100 µM (inactive); in [11], > 100 µM (inactive); in [14] it was > 100 µM (inactive); in [19] it was > 100 µM (inactive); in [16] it was > 10 µM (inactive). Moreover, the GI50 in experiment [17] was > 100 µM (inactive); in experiment [18], 47.4 µM (inactive).

As for `Cc1cccc(C(=O)c2cccc3ccccc23)c1C(=O)O`, the GI50 in [1], in experiment [3], in experiment [4], in experiment [5], in experiment [6] and in experiment [7] was > 100 µM (inactive) each time. Further, the GI50 in experiment [8], in experiment [9], in [10], in [11], in [12] and in [13] was > 100 µM (inactive) throughout. Moreover, the GI50 in experiment [14], in experiment [19], in experiment [15], in [16] and in experiment [18] was > 100 µM (inactive) throughout.

For `COc1ccc(/C=C/c2cc(OC)c(OCc3ccccc3)c(OC)c2)cc1`, the GI50 in experiment [2] was > 100 µM (inactive); in [5], > 100 µM (inactive); in experiment [6], 87.5 µM (inactive); in [8] it was 77.1 µM (inactive); in experiment [9], 27.9 µM (inactive); in experiment [10] it was 48.3 µM (inactive). In addition, the GI50 is > 100 µM (inactive) in experiment [11]; > 100 µM (inactive) in experiment [12]; > 100 µM (inactive) in [13]; > 100 µM (inactive) in experiment [14]; > 100 µM (inactive) in experiment [19]; 89.7 µM (inactive) in experiment [15]. Besides, the GI50 in experiment [16] and in experiment [18] was > 100 µM (inactive) throughout.
